According to patent US12503448B2, “Antibacterial and antiparasitic quinoxaline-2,3-diamine derivatives” (University College Cardiff Consultants Limited, priority 2019, dated 2025):
Like-named read-outs stand apart in the source and are kept apart here.

Assays:
S. mansoni schistosomula = assay: 72 hours schistosomula drug screen; assay type: cell-based, Schistosoma mansoni; conditions: for Selectivity Index Schistosomula: HepG2 CC50 over schistosomula EC50; for EC50: Schistosoma mansoni
Method: Biological Screening 72 Hours Schistosomula Drug Screen […] G. Colley, […], Schistosoma mansoni: simplified method for the production of schistosomules., Exp. Parasitol. 35 (1974) 44-51. Newly transformed schistosomula were prepared for 72 hour high throughput screening (HTS) in 384-well black-sided microtiter plates (Perkin Elmer, MA, USA) as described in M. Nur-e-alam, M. Yousaf, […]. Bari, H. A. Ghabbour, […]. Ho, A. J. […], Neoclerodane Diterpenoids from […], Teucrium […]. Nat. […] The data obtained in this manner is shown in Table 1 in the columns labelled “Phenotype”, “Motility” and “Schistosomula average”.

MTT assay on HepG2 cells = assay type: cell-based; conditions: human
Method: MTT Assay on HepG2 Cells Human Hepatocyte Carcinoma (HepG2) cells (85011430, Sigma Aldrich) were used to assess the overt toxicity of these anti-infective compounds. […] A negative control (1% v/v Triton X-100; X100, Sigma-Aldrich) was also included in each screen. After addition of compounds, each plate was then incubated for a further 20 hrs before application of MTT reagent (prepared as described in Nur-[…], Bari A, Ghabbour […], Hoffmann […] Nat Prod. 2017 Jun. 23; 80(6):1900-1908 for the assessment of compound cytotoxicity using the MTT assay. […] The plate was then further incubated for 4 hrs. After incubation, each plate was blotted dry under the laminar flow to remove the MTT treated culture media. A 100 μl DMSO: isopropanol (1:1) solution was then added to each well and the plate was then subsequently incubated for 10 minutes at 37° C. Following incubation, each plate was shaken again and then absorbance measured at 570 nm. The absorbance reading was corrected based on the average value of the wells used as blank (no cells). […] The data obtained in this manner is shown in Table 1 in the columns labelled “HepG2”. […] The selectivity indexes for schistosomula and adult worms are shown in the final two columns in Table 1.

S. mansoni adult worms = assay: Adult worm drug screen (WHO scoring, WormassayGP2); assay type: cell-based, Schistosoma mansoni
Description: Mice (MF-1 mice, Harlan, UK), infected 7 weeks previously with 180 cercaria, were euthanised with an intraperitoneal injection of phenobarbital/heparin solution. Adult worms were recovered by perfusion of the portal system and subjected to drug screening as previously described in Padalino G, Ferla S, Brancale A, Chalmers I W, Hoffmann K F. Int J Parasitol Drugs Drug Resist. 2018 December; 8(3):559-570; in Whiteland H L, Chakroborty A, Forde-Thomas J E, Crusco A, Cookson A, Hollinshead J, Fenn C A, Bartholomew B, Holdsworth P A, Fisher M, Nash R J, Hoffmann K F. Int J Parasitol Drugs Drug Resist. 2018 December; 8(3):465-474; and in Crusco A, Bordoni C, Chakroborty A, Whatley K C L, Whiteland H, Westwell A D, Hoffmann K F. Eur J Med Chem. 2018 May 25; 152:87-100. The data obtained in this manner is shown in Table 1 in the columns labelled “Adult worm”.
Regarding the quantification of drug treatment on adult worms (e.g. decreased activity, paralysis or sluggishness), two different approaches were used, as described below. Where egg deposition was noticed, eggs were removed and counted using a Sedgewick rafter slide.
Adult worms were scored using the standardized microscopic WHO-TDR scoring system previously described by Ramirez, B., Bickle, Q., Yousif, F., Fakorede, F., Mouries, M.-A., Nwaka, S. in Schistosomes: Challenges in compound screening, Expert Opin Drug Discov. 2007 October; 2(s1): S53-61. This scoring system (0-4) identifies changes in worm movement and is defined according to the following scoring matrix: 0=no movement, 1=no movement with visible gut peristalsis, 2=minimal movement (occasional movement from anterior or posterior end of the worm), 3=slow continuous movement and 4=normal movement.
A digital image processing-based system was also used to assess parasite motility after drug treatment and is a modification of methods previously described by Marcellino C., Gut, J., Lim, K., Singh R., McKerrow, L. and Sakanari, J. WormAssay: a novel computer application for whole-plate motion-based screening of macroscopic parasites. PLoS Negl Trop Dis. 2012 January:6(1):e1494. This allowed for objective verification of the WHO method described above. The data obtained with this quantification method is shown in Table 1 in the columns labelled “Adult worm”.

[1] = schistosomula, 72 hour culture, read-out: EC50 Motility
[2] = schistosomula, 72 hour culture, read-out: EC50 Phenotype

Row | EC50 (S. mansoni schistosomula; [1]) [µM] | EC50 (S. mansoni schistosomula; [2]) [µM] | EC50 (S. mansoni adult worms; Schistosoma mansoni, adult worms) [µM] | EC50 (S. mansoni schistosomula; average of phenotype and motility, read-out: EC50 Schistosomula average) [µM] | Structure (SMILES) | Selectivity Index Schistosomula (S. mansoni schistosomula) | CC50 at 24 h (MTT assay on HepG2 cells) [µM] | Selectivity Index Adult (S. mansoni adult worms; HepG2 CC50 over adult worm EC50)
1 | 1.4 | 2.14 | 0.18 |  | O=[N+]([O-])c1ccc2nc(Nc3ccc(F)cc3)c(Nc3ccc(F)cc3)nc2c1 [Compound 6, N^2, N^3-bis(4-fluorophenyl)-6-nitroquinoxaline-2,3-diamine] | 12 | 22 | 121
2 | 1.23 | 1.62 |  |  | Cc1cccc(Nc2nc3ccc([N+](=O)[O-])cc3nc2Nc2cccc(C)c2)c1 [Compound 21] | 11 | 15.6 | 
3 | 4.51 | 4.31 |  | 4.41 | c1ccc(/N=c2\sc3ccccc3s\c2=N/c2ccccc2)cc1 [Compound 20] | 3 | 13.8 | 
